Measured values published in PMC7997389 (Biochemical and Biophysical Research Communications, 2021).

Assays:
[1] = tested on: SARS-CoV-2-GHB-03021/2020; conditions: hamster, in vivo
[2] = tested on: human alpha-coronavirus 229E; assay: organism not typed; assay type: cell-based; conditions: Huh-7, 96 h, read-out: α-CoV 229E (Huh-7) EC50
[3] = Cytotoxicity in HeLa cells; assay type: cell-based; conditions: human
SARS-CoV-2 [4] = conditions: cited from earlier work
3CLpro = conditions: cited from earlier work
human cathepsin L = human cathepsin L (Homo sapiens, UniProt P07711); assay: human cathepsin L biochemical assay; conditions: 3CLpro versus cathepsin L
SARS-CoV-2 [5] = conditions: cited from earlier work; remark: listed apart in the source
SARS-CoV-2 [6] = conditions: monotherapy; cited from earlier work

Chain of human cathepsin L (P07711 114-333): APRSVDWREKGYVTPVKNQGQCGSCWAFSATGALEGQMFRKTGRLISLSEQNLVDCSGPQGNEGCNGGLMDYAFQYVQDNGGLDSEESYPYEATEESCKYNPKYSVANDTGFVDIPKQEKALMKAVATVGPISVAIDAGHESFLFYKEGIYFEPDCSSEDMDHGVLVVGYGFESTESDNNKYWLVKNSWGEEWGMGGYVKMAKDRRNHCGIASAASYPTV

For `CC(C)C(=O)OC[C@H]1O[C@@H](n2ccc(NO)nc2=O)[C@H](O)[C@@H]1O` [EIDD-2801], the “reduction in viral RNA copies per mg of lung tissue” value [1] was 2.0 log10 and the “reduction of infectious virus titers in the lungs” value [1] was 4.1 log10 TCID50 per mg.
Work on `CCC(CC)COC(=O)[C@H](C)N[P@](=O)(OC[C@H]1O[C@@](C#N)(c2ccc3c(N)ncnn23)[C@H](O)[C@@H]1O)Oc1ccccc1` [Remdesivir] yielded an EC50 [2] of 14.5 ± 3.48 nM and a CC50 [3] of over 5000 nM.
For `CN1CCN(C(=O)N[C@@H](Cc2ccccc2)C(=O)N[C@H](/C=C/S(=O)(=O)c2ccccc2)CCc2ccccc2)CC1` [K117777], the “antiviral effect when TMPRSS2 was expressed” value (SARS-CoV-2 [4]; A549-ACE2 expressing TMPRSS2) is given as “abolished”, the “inhibition of SARS-CoV-2 in cells” value (SARS-CoV-2 [4]; VeroE6, A549-ACE2 and HeLa-ACE2) is given as “potent inhibition” and the “inhibitory effect on the 3CLpro” value (3CLpro) is given as “lacks an inhibitory effect”.
For `CC(C)C[C@H](NC(=O)OCc1ccccc1)C(=O)N[C@@H](CC1CCNC1=O)C(O)S(=O)(=O)[O-].[Na+]` (stereo partly shown) [GC-376], the “selectivity against human cathepsin L in comparison with ALG-097111” value (human cathepsin L) is given as “significantly less selective”, the “antiviral activity in the K18-hACE2 SARS-CoV-2 infection mouse model” value (SARS-CoV-2 [5]) is given as “modest antiviral activity” and the “antiviral effect in a mouse model of SARS-CoV-2 infection” value (SARS-CoV-2 [6]) is given as “failed to show a clear antiviral effect”.
